The source of these data is article PMC8151276, “An Integrated Approach toward NanoBRET Tracers for Analysis of GPCR Ligand Engagement” (Molecules, 2021).

Type in all cases: binding
The target of one assay is T1, CHRM3 (Homo sapiens, UniProt P20309).
T1 construct: purchased Promega (in-house HiBiT-GPCR construct library, NanoBRET)
The assay is described as follows: NanoBRET screen HiBiT-CHRM3 in HEK293. Background: In BRET a luciferase serves as donor, and the signal depends on an acceptor being close.

The next assay deals with T2, CXCR2 (Homo sapiens, UniProt P25025).
T2 construct: purchased Promega (in-house HiBiT-GPCR construct library, NanoBRET)
T2 sequence (P25025 1-360): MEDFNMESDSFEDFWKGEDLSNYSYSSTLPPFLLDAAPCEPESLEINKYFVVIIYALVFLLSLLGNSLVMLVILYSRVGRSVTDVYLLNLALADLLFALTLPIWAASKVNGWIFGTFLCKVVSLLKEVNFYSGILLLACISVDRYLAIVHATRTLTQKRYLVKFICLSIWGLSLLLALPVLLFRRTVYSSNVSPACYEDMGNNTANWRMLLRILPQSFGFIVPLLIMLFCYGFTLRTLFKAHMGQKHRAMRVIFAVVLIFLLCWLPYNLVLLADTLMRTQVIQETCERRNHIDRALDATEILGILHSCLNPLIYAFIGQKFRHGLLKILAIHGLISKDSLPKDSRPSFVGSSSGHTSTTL
The experiment in a line: NanoBRET screen HiBiT-CXCR2 in HEK293. As to conditions: CXCR2. Here is the method: Each tracer candidate was screened across the entire library of HiBiT-GPCR constructs using NanoBRET as the detection modality. As depicted in Figure 4A, the specificity of interactions was evaluated through decrease in BRET due to competitive displacement of a bound tracer by excess parental compound. Each tracer was analyzed for binding to each HiBiT-GPCR fusion in the absence and in the presence of competing parental compound. Briefly, HEK293 cells were transfected with HiBiT-GPCR constructs diluted into promoterless DNA to reduce expression and maximize translocation to the cell surface. Each tracer candidate was then screened at concentrations of 1 μM and 0.1 μM across cells expressing these fusions. Cells were treated for 1.5 h with tracer either alone or in the presence of 20 μM competing parental compound (i.e., control). BRET was measured upon addition of purified LgBiT and subsequent complementation with HiBiT genetically fused to a GPCR. The specificity of interactions was assessed through a decrease in BRET signal due to competitive displacement of the bound tracer. To further gauge the robustness of these interactions, the fold response over the control (i.e., BRETtracer/BRETcontrol) was calculated. We chose a 1.5-fold response, which translates to ≥7-fold signal over noise as the minimal threshold required to score an interaction as positive. […]. Below we highlight the screening results obtained for our exemplary fluorescent tracers based on Clozapine, Amitriptyline and AZD1283.
HiBiT-GPCR DNA constructs were diluted in 10 mM Tris pH 8 to a final concentration of 0.01 μg/μL, arrayed in 96-well plates and stored at −20 °C. For transfection, HEK293 cells were suspended in Opti-MEM (without phenol red) supplemented with 2% fetal bovine serum (Seradigm) and 100 units/mL penicillin–streptomycin (Gibco) at a final concentration of 220,000 cells/mL and dispensed into white 96-well plates at 90 μL/well. Subsequent transfections and screens were carried using an Agilent Bravo Automated Liquid Handling Platform. First, the 96-well HiBiT DNA arrays were diluted 25-fold in Opti-MEM (without serum or phenol red) to a final concentration of 0.0004 μg/μL and 20 μL of the diluted DNAs were transferred into new 96-well plates. Next, promoterless carrier DNA (1 μg/μL) was diluted 25-fold (0.04 μg/μL) and then dispensed into the diluted arrays at 20 μL/well. Following brief mixing, Viafect transfection reagent (Promega) diluted 16-fold into Opti-MEM was dispensed into the plates at 40 μL/well. After mixing by pipetting, plates were incubated for 10 min on the pipetting station deck. The DNA-transfection reagent complexes were then added to plates containing cells. To facilitate the screen, 10 μL of DNA-transfection reagent complexes were added in duplicates to the top 4 and bottom 4 rows, resulting in two identical 48-well arrays per plate. Plates with transfected cells were incubated for 18–20 h at 37 °C/5% CO2. A screen of each tracer across the entire library using two different concentrations requires duplicate plates of transfected cells. Depending on the number of tracers being screened, transfections can be scaled up using the same ratios. The next day, for each tracer, four 20× screening solutions in tracer dilution buffer (Promega) were prepared: two duplicates at final concentration of 20 μM and two duplicates at a final concentration of 2 μM. A competing unmodified compound was added to one of each duplicate at a final concentration of 400 μM. The four resulting solutions were diluted 4-fold in Opti-MEM without serum or phenol red to generate 5× solutions (5 µM and 0.5 µM tracer +/− 100 μM competing compound). To screen the library, a BioTek MultiFlo FX liquid dispenser was used to dispense 22.5 µL of tracer solution to the top 4 rows and 22.5 µL tracer + competing compound solution to the 4 bottom rows. Plates were briefly mixed on an orbital shaker and incubated for 1.5 h at room temperature. […]

For another assay, the target named is T3, CHRM1 (Homo sapiens, UniProt P11229).
T3 construct: purchased Promega (in-house HiBiT-GPCR construct library, NanoBRET)
T3 sequence (P11229 1-460): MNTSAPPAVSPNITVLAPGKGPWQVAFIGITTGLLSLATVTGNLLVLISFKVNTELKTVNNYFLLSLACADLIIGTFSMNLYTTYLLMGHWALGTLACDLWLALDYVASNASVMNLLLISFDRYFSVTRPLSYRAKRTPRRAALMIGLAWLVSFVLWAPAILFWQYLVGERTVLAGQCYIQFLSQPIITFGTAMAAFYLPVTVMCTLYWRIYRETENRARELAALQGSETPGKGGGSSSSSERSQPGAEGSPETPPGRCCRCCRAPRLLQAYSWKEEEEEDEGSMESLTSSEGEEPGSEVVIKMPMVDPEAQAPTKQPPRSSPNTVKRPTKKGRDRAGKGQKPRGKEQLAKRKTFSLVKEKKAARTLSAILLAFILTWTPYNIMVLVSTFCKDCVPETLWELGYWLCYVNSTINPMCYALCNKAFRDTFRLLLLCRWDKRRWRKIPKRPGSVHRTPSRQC
The assay is described as follows: NanoBRET screen HiBiT-CHRM1 in HEK293.

The next assay has as its target T4, HRH1 (Homo sapiens, UniProt P35367).
T4 construct: purchased Promega (in-house HiBiT-GPCR construct library, NanoBRET)
The experiment in a line: NanoBRET screen HiBiT-HRH1 in HEK293.

Structures are written as SMILES. “And” between values parts separate entries of the source, which are not always exact repeats. Equal values may be shown once. Read-outs that look alike come from different tables or passages of the source.

T1 sequence (P20309 whole entry): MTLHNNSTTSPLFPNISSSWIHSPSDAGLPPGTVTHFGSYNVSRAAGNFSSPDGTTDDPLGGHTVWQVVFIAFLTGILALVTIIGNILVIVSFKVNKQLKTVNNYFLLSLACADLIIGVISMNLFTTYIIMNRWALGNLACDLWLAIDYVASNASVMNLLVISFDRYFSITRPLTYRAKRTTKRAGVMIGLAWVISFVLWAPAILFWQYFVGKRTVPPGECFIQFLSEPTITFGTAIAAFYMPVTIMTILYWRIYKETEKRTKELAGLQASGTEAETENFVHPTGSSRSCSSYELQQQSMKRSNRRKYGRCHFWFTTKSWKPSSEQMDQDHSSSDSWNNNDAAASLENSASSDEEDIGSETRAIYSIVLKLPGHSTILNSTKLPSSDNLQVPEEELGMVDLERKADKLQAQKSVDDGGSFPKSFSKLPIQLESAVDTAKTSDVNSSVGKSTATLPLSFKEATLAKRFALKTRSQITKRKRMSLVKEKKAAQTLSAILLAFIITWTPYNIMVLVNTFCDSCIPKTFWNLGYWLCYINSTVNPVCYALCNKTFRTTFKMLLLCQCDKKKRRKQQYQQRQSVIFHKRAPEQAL
T4 sequence (P35367 whole entry): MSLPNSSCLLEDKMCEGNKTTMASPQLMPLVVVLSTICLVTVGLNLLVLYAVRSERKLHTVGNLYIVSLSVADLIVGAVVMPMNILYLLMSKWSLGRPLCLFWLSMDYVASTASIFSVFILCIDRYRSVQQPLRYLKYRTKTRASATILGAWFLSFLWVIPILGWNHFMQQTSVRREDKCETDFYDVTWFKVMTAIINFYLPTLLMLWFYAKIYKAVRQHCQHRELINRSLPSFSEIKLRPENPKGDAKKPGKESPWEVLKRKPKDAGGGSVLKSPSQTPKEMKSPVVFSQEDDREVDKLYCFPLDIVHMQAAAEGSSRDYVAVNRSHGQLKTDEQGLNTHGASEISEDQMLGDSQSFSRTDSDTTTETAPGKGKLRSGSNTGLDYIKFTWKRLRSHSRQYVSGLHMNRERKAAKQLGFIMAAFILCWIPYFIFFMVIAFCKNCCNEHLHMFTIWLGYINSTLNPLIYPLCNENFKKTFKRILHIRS

On to `COc1ccccc1N1CCN(CCCCN2C(=O)c3ccc(CNC(=O)CCOCCNC(=O)c4ccc(CNC(=O)CCc5ccc6n5[B-](F)(F)[N+]5=C(c7ccc[nH]7)C=CC5=C6)cc4)cc3C2=O)CC1` [NAN-190-3-NB590], for which the “NanoBRET Fold Response” value on CHRM3 (CHRM3, tracer 0.1μM) was 1.10; at CHRM3 (CHRM3, tracer 1μM) it was 1.12; at CXCR2 (tracer 0.1μM), 1.10; at CXCR2 (tracer 1μM), 0.86; on CHRM1 (CHRM1, tracer 0.1μM) it was 0.89; at CHRM1 (CHRM1, tracer 1μM) it was 0.92. Moreover, the “NanoBRET Fold Response” value at HRH1 (HRH1, tracer 0.1μM) was found to be 2.18; on HRH1 (HRH1, tracer 1μM), 1.84.
Regarding `N#CN=C(NCCCOc1cccc(CN2CCCCC2)c1)NCCNC(=O)CCOCCOCCOCCOCCNC(=O)CCc1ccc2n1[B-](F)(F)[N+]1=C(c3ccc[nH]3)C=CC1=C2` [Aminopotentidine-2-NB590], the “NanoBRET Fold Response” value on CHRM3 (CHRM3, tracer 0.1μM) was 0.99; on CHRM3 (CHRM3, tracer 1μM), 1.04; on CXCR2 (tracer 0.1μM), 0.90; at CXCR2 (tracer 1μM), 0.95; on CHRM1 (CHRM1, tracer 0.1μM) it was 0.98; at CHRM1 (CHRM1, tracer 1μM), 1.35. The “NanoBRET Fold Response” value is 0.91 at HRH1 (HRH1, tracer 0.1μM) and 1.08 at HRH1 (HRH1, tracer 1μM).
`COc1ccccc1N1CCN(CCCCN2C(=O)c3ccc(CNC(=O)CCOCCOCCOCCOCCNC(=O)CCc4ccc5n4[B-](F)(F)[N+]4=C(c6ccc[nH]6)C=CC4=C5)cc3C2=O)CC1` [NAN-190-2-NB590]: the “NanoBRET Fold Response” value worked out at 0.99 on CHRM3 (CHRM3, tracer 1μM); 1.08 at CXCR2 (tracer 0.1μM); 0.92 on CXCR2 (tracer 1μM); 1.02 on CHRM1; 1.16 on CHRM1 (CHRM1, tracer 1μM); 2.49 on HRH1 (HRH1, tracer 0.1μM). Besides, on HRH1 (HRH1, tracer 1μM), the “NanoBRET Fold Response” value was 2.31.
`O=C(CCOCCOCCOCCOCCNC(=O)CCc1ccc2n1[B-](F)(F)[N+]1=C(c3ccc[nH]3)C=CC1=C2)NCCCN1CCN(C2=Nc3ccccc3Oc3ccc(Cl)cc32)CC1` [Loxapine-a-2-NB590]: the “NanoBRET Fold Response” value on CHRM3 was 0.96 and 1.07; at CXCR2 (tracer 0.1μM), 1.06; at CXCR2 (tracer 1μM), 0.98; at CHRM1 it was 0.90 and 1.14; on HRH1 it was 3.64 and 4.76.
Turning to `CCCn1c(=O)c2[nH]c(-c3ccc(OCC(=O)NCCNC(=O)CCOCCNC(=O)c4ccc(CNC(=O)CCc5ccc6n5[B-](F)(F)[N+]5=C(c7ccc[nH]7)C=CC5=C6)cc4)cc3)nc2n(CCC)c1=O` [XAC-3-NB590], the “NanoBRET Fold Response” value was 0.90 at CHRM3 (CHRM3, tracer 0.1μM); 1.29 on CHRM3 (CHRM3, tracer 1μM); 1.22 at CXCR2 (tracer 0.1μM); 0.70 at CXCR2 (tracer 1μM); 1.11 at CHRM1 (CHRM1, tracer 0.1μM); 0.99 at CHRM1 (CHRM1, tracer 1μM). Moreover, the “NanoBRET Fold Response” value is recorded as 0.95 on HRH1 (HRH1, tracer 0.1μM) and 1.24 on HRH1 (HRH1, tracer 1μM).
As for `CCOC(=O)c1cc(C#N)c(N2CCC(C(=O)NS(=O)(=O)Cc3ccccc3/C=C/C(=O)NCCNC(=O)CCc3ccc4n3[B-](F)(F)[N+]3=C(c5ccc[nH]5)C=CC3=C4)CC2)nc1C` [AZD1283-1-NB590], the “NanoBRET Fold Response” value on CHRM3 (CHRM3, 0.1μM) was determined as 1.07; at CHRM3 (CHRM3, 1μM), 1.09; at CXCR2 (0.1μM), 0.99; on CXCR2 (1μM) it was 1.03; on CHRM1 (CHRM1, 0.1μM) it was 1.01; at CHRM1 (CHRM1, 1μM), 1.04. Besides, the “NanoBRET Fold Response” value on HRH1 (HRH1, 0.1μM) was 1.05; on HRH1 (HRH1, 1μM) it was 0.92.
